Data on eleven compounds can be found in patent US7786141B2 (Vertex Pharmaceuticals Incorporated, priority 2004, dated 2010).

Assay [1] addresses T1, M1 muscarinic receptor (Homo sapiens, UniProt P11229).
T1 construct: expressed in transfected cells; host or cells: CHO (M1-CHO)
T1 sequence (P11229 1-460): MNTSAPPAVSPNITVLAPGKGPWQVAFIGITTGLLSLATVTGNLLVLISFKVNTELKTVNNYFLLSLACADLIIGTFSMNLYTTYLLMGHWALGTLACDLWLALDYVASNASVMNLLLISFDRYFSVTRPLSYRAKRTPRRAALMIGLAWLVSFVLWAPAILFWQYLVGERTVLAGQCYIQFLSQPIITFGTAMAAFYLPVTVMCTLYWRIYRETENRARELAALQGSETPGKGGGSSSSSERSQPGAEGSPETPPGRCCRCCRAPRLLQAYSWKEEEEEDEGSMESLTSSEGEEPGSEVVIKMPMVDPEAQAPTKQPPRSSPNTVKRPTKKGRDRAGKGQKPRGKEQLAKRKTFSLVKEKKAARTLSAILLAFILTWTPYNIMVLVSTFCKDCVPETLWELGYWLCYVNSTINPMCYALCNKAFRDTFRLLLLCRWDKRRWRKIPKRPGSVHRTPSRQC
In words: Functional mobilization of intracellular calcium (FLIPR) in M1-CHO cells. In kind it is cell-based. The method in brief: (§1)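 Steps: seed M1- or M4-CHO cells 18-24 hrs ahead; load calcium dye with 1 mM probenecid; add test compound (0.5% DMSO final), either alone for agonism or 15 min before EC80 carbachol for inhibition; record FLIPR fluorescence for 60 sec.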
(Calcium assays in cells follow changes in intracellular calcium, usually with a dye or a luminescent sensor.)

Assay [2] addresses T2, M4 muscarinic receptor (Homo sapiens, UniProt P08173).
T2 construct: expressed in transfected cells; host or cells: CHO (M4-CHO)
T2 sequence (P08173 1-479): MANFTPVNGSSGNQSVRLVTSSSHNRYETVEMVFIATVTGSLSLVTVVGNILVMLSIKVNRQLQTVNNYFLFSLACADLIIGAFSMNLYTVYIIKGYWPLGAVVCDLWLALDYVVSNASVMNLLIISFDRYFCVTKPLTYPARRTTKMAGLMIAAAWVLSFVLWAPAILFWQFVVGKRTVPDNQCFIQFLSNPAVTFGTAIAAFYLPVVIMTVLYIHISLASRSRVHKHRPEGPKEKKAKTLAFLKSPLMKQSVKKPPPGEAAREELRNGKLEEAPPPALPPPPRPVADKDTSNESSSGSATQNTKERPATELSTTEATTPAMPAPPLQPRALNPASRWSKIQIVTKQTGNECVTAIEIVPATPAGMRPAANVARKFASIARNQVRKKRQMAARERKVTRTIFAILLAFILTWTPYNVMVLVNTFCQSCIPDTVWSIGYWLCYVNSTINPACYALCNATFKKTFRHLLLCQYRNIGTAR
The assay can be described thus: Functional mobilization of intracellular calcium (FLIPR) in M4-CHO cells. It is filed as cell-based. In short, it runs like this:
as §1

The mark [3] stands for this setting: M1 receptor, calcium mobilization.
Where [4] appears, read: M1 receptor, calcium mobilization, read-out: M1 Efficacy.
The mark [5] stands for this setting: M4 receptor, calcium mobilization.
The mark [6] stands for this setting: M4 receptor, calcium mobilization, read-out: M4 Efficacy.
The mark [7] stands for this setting: Table 4, 100% efficacy is the maximum response obtained with the Carbachol control.
[8] abbreviates: Table 4, modulating M1 receptor.
Setting [9] is: Table 4, modulating M4 receptor.

Read-outs that look alike come from different tables or passages of the source.

As for `O=C(OCC1CCCO1)N1C2CCC1CC(N1CCC3(CC1)COc1ccc(F)cc13)C2` (centres unmarked) [compound 363], the “M1 Activity” value in assay [1] (setting [3]) is “xx (activity was measured to be between 0.1 μM and 1.0 μM)”. Further, the Emax in assay [1] (setting [4]) and in assay [2] (setting [6]) was under 65% in each case. For the same compound, the “M4 Activity” value in assay [2] (setting [5]) is on record as “x (activity was measured to be greater than 1.0 μM)”.

As for `CC(=O)N[C@H]1CC2(CCN(C3C[C@H]4CC[C@@H]3C4)CC2)c2ccccc21` (some centres unmarked) [compound 158], the “M1 Activity” value in assay [1] (setting [3]) was “xxx (activity was measured to be less than 0.1 μM)”. In addition, the Emax in assay [1] (setting [4]) and in assay [2] (setting [6]) was over 85% each time. The “M4 Activity” value in assay [2] (setting [5]) is reported as “x (activity was measured to be greater than 1.0 μM)”.

Regarding `COCCOC(=O)N1CC2(CCN(C3CC4CCC(C3)N4C(=O)OC3CCC3)CC2)c2cc(F)ccc21` (centres unmarked) [compound 195], the “M1 Activity” value in assay [1] (setting [3]) is “xx (activity was measured to be between 0.1 μM and 1.0 μM)”. Besides, the Emax in assay [1] (setting [4]) and in assay [2] (setting [6]) was under 65% in each case. The “M4 Activity” value in assay [2] (setting [5]) is reported as “x (activity was measured to be greater than 1.0 μM)”.

With `Cc1ccc2c(c1)C1(CCN([C@@H]3C[C@@H]4CC[C@@H]3C4)CC1)CN2` [compound 23], the “M1 Activity” value in assay [1] (setting [3]) was “xx (activity was measured to be between 0.1 μM and 1.0 μM)”. In addition, the Emax in assay [1] (setting [4]) and in assay [2] (setting [6]) was under 65% throughout. Moreover, the “M4 Activity” value in assay [2] (setting [5]) is reported as “x (activity was measured to be greater than 1.0 μM)”.

Regarding `CN(C)C(=O)N1CC2(CCN(C[C@@H]3CCN(c4nccs4)C3)CC2)c2cc(F)ccc21` [compound 570], the Emax in assay [1] (setting [7]) and in assay [2] (setting [7]) was 25 to 100% throughout. For the same compound, in assay [1] (setting [8]), the “M1 Activity” value is “xx (activity was measured to be between 2.0 μM and 5.0 μM)”. For the same compound, the “M4 Activity” value in assay [2] (setting [9]) is given as “xxx (activity was measured to be less than 2.0 μM)”.

`C#CCOC(=O)N1C2CCC1CC(N1CCC3(CC1)CN(C(C)=O)c1ccccc13)C2` (centres unmarked) [compound 516]: the Emax in assay [1] (setting [7]) and in assay [2] (setting [7]) was 25 to 100% each time. The “M1 Activity” value in assay [1] (setting [8]) was “xxx (activity was measured to be less than 2.0 μM)”. The “M4 Activity” value in assay [2] (setting [9]) is reported as “xxx (activity was measured to be less than 2.0 μM)”.

For `CC(=O)NC1CCC2(CCN(CCC3CCCN(C(=O)OC(C)C)C3)CC2)c2ccccc21` (centres unmarked) [compound 731], the Emax in assay [1] (setting [7]) and in assay [2] (setting [7]) was under 25% throughout. In addition, the “M1 Activity” value in assay [1] (setting [8]) was “xxx (activity was measured to be less than 2.0 μM)”. For the same compound, the “M4 Activity” value in assay [2] (setting [9]) was “x (activity was measured to be greater than 5.0 μM)”.

For `CC(=O)N1CC2(CCN(C3CCN(C(=O)OCC(F)F)CC3)CC2)c2cc(C)ccc21` [compound 829], the Emax in assay [1] (setting [7]) and in assay [2] (setting [7]) was 25 to 100% each time. For the same compound, in assay [1] (Table 4, M1 receptor, calcium mobilization (FLIPR)), the “M1 Activity” value is “xxx (activity was measured to be less than 2.0 μM)”. In addition, the “M4 Activity” value in assay [2] (Table 4, M4 receptor, calcium mobilization (FLIPR)) was “xxx (activity was measured to be less than 2.0 μM)”.

For `CC#CCOC(=O)N1CC2(CCN(C3CCN(C(=O)OCC)CC3)CC2)c2cc(F)ccc21` [compound 346], in assay [1] (setting [3]), the “M1 Activity” value is “xxx (activity was measured to be less than 0.1 μM)”. Moreover, the Emax in assay [1] (setting [4]) and in assay [2] (setting [6]) was under 65% each time. In assay [2] (setting [5]), the “M4 Activity” value is listed as “x (activity was measured to be greater than 1.0 μM)”.

As for `c1ccc2c(c1)NCC21CCN(CC2CC3CCC2C3)CC1` (centres unmarked) [compound 110], in assay [1] (setting [3]), the “M1 Activity” value is listed as “xxx (activity was measured to be less than 0.1 μM)”. Besides, the Emax in assay [1] (setting [4]) and in assay [2] (setting [6]) was under 65% throughout. Moreover, the “M4 Activity” value in assay [2] (setting [5]) was “xx (activity was measured to be between 0.1 μM and 1.0 μM)”.

With `CN(C)C(=O)N1CC2(CCN(C[C@@H]3CCN(c4cnccn4)C3)CC2)c2cc(F)ccc21` [compound 608], the Emax in assay [1] (setting [7]) and in assay [2] (setting [7]) was 25 to 100% in each case. For the same compound, the “M1 Activity” value in assay [1] (setting [8]) is recorded as “xxx (activity was measured to be less than 2.0 μM)”. The “M4 Activity” value in assay [2] (setting [9]) is “xxx (activity was measured to be less than 2.0 μM)”.
